Data published in ChEMBL document CHEMBL3774331, “Inhibition of tau aggregation using a naturally-occurring cyclic peptide scaffold” (Eur J Med Chem, 2016).
Active and inactive are the calls of the source. No cut-off for these calls is given here. Where a SMILES comes first, the peptide text is derived from it. Bridges are numbered along the chain shown (N, C = ends).

Columns and labels:
[1] = Inhibition of TAU derived synthetic hexapeptide AcPHF6 fibril formation at compound:AcPHF6 ratio of 1:1 to 1:64 incubated for 60 mins by thioflavin S fluorescence assay
[2] = Inhibition of TAU derived synthetic hexapeptide AcPHF6 fibril formation incubated for 60 mins by thioflavin T fluorescence assay
[3] = test system: Serum; experiment: Stability in 100% human serum at 30 uM after 24 hrs; format: ADME
[4] = Binding affinity to thioflavin S at compound:AcPHF6 ratio of 1:1 to 1:64 incubated for 120 mins by fluorescence assay
[5] = Activation of TAU derived synthetic hexapeptide AcPHF6 fibril formation at compound:AcPHF6 ratio of 1:1 to 1:64 incubated for 60 mins by thioflavin S fluorescence assay

Row | Structure (SMILES) | inhibition [1] | further results
1 | CC[C@H](C)[C@@H]1NC(=O)[C@H](CCC(=O)O)NC(=O)[C@@H]2CCCN2C(=O)[C@H](Cc2cnc[nH]2)NC(=O)[C@H](CC(=O)O)NC(=O)[C@H](Cc2ccc(O)cc2)NC(=O)[C@H](CC(N)=O)NC(=O)[C@H]2CSSC[C@H](NC(=O)CN)C(=O)N[C@@H](CSSC[C@@H](C(=O)NCC(=O)NCC(=O)N[C@@H](C)C(=O)NCC(=O)NCC(=O)O)NC1=O)C(=O)N[C@H](CO)C(=O)N[C@@H](CC(=O)O)C(=O)N1CCC[C@H]1C(=O)N[C@H](CCCNC(=N)N)C(=O)N2 | inactive | –
2 | CC[C@H](C)[C@@H]1NC(=O)[C@H](CCC(N)=O)NC(=O)[C@H](C(C)C)NC(=O)CNC(=O)[C@H]2CCCN2C(=O)[C@H](C(C)C)NC(=O)[C@H](CCCCN)NC(=O)[C@H]([C@@H](C)CC)NC(=O)[C@@H]2CSSC[C@H](NC1=O)C(=O)N[C@@H](Cc1ccc(O)cc1)C(=O)N[C@@H](CCCCN)C(=O)N[C@@H](CO)C(=O)N[C@@H]([C@@H](C)CC)C(=O)N1CCC[C@H]1C(=O)N1CCC[C@H]1C(=O)NCC(=O)N2 | Active | –
3 | CC[C@H](C)[C@@H]1NC(=O)[C@H](CCC(N)=O)NC(=O)[C@H](C(C)C)NC(=O)CNC(=O)[C@H]2CCCN2C(=O)[C@H](C(C)C)NC(=O)[C@H](CCC(N)=O)NC(=O)[C@H]([C@@H](C)CC)NC(=O)[C@@H]2CSSC[C@H](NC1=O)C(=O)N[C@@H](Cc1ccc(O)cc1)C(=O)N[C@@H](CCCCN)C(=O)N[C@@H](CO)C(=O)N[C@@H]([C@@H](C)CC)C(=O)N1CCC[C@H]1C(=O)N1CCC[C@H]1C(=O)N[C@@H]([C@@H](C)CC)C(=O)N2 | Active | –
4 | CC[C@H](C)[C@@H]1NC(=O)[C@@H]2CCCN2C(=O)[C@@H]2CCCN2C(=O)[C@H]([C@@H](C)CC)NC(=O)[C@H](CO)NC(=O)[C@H](Cc2ccccc2)NC(=O)[C@H](CC(N)=O)NC(=O)[C@@H]2CSSC[C@H](NC1=O)C(=O)N[C@@H](CCC(N)=O)C(=O)N[C@@H](CCCCN)C(=O)N[C@@H](CO)C(=O)N1CCC[C@H]1C(=O)N[C@@H](CC(=O)O)C(=O)NCC(=O)N[C@@H](CO)C(=O)N[C@@H](CC(N)=O)C(=O)N[C@@H](CCC(N)=O)C(=O)N2 (cyclo(CNFSIPPICQKSPDGSNQ); disulfide 1-9) | Active | –
5 | CC[C@@H](C)[C@H]1NC(=O)[C@@H]2CCCN2C(=O)[C@@H]2CCCN2C(=O)[C@H]([C@@H](C)CC)NC(=O)[C@H](CO)NC(=O)[C@H](CC(N)=O)NC(=O)[C@H](CCC(=O)O)NC(=O)[C@@H]2CSSC[C@H](NC1=O)C(=O)N[C@@H](CCC(N)=O)C(=O)N[C@H](CCCCN)C(=O)N[C@H](CC(C)C)C(=O)N1CCC[C@H]1C(=O)N[C@H](CC(=O)O)C(=O)NCC(=O)N[C@H](CC(C)C)C(=O)N[C@@H](Cc1ccc(O)cc1)C(=O)N[C@H](CCC(N)=O)C(=O)N2 | Active | –
6 | CC[C@H](C)[C@@H]1NC(=O)[C@@H]2CCCN2C(=O)[C@@H]2CCCN2C(=O)[C@H]([C@@H](C)CC)NC(=O)[C@H](CO)NC(=O)[C@H](CCCCN)NC(=O)[C@H]([C@@H](C)O)NC(=O)[C@H](C)NC(=O)[C@H](CCCNC(=N)N)NC(=O)CNC(=O)[C@H](CC(=O)O)NC(=O)[C@@H]2CCCN2C(=O)[C@H](Cc2ccccc2)NC(=O)[C@H](C)NC1=O (cyclo(AFPDGRATKSIPPI)) | Active | –
7 | CC[C@H](C)[C@@H]1NC(=O)[C@H](CCC(N)=O)NC(=O)[C@H](C(C)C)NC(=O)CNC(=O)[C@H]2CCCN2C(=O)[C@H](C(C)C)NC(=O)[C@H](C)N(C)C(=O)[C@H]([C@@H](C)CC)NC(=O)[C@H](C)NC(=O)[C@H]([C@@H](C)CC)NC(=O)[C@@H]2CCCN2C(=O)[C@@H]2CCCN2C(=O)[C@H]([C@@H](C)CC)NC(=O)[C@H](CO)NC(=O)[C@H](CCCCN)NC(=O)[C@H](Cc2ccc(O)cc2)NC(=O)[C@H](C(C)C)NC1=O | Active | –
8 | CC[C@H](C)[C@@H]1NC(=O)[C@H](CCC(N)=O)NC(=O)[C@H](C(C)C)NC(=O)CNC(=O)[C@H]2CCCN2C(=O)[C@H](C(C)C)NC(=O)[C@H](C)NC(=O)[C@H](Cc2ccccc2)NC(=O)[C@@H]2CSSC[C@H](NC1=O)C(=O)N[C@@H](Cc1ccc(O)cc1)C(=O)N[C@@H](CCCCN)C(=O)N[C@@H](CO)C(=O)N[C@@H]([C@@H](C)CC)C(=O)N1CCC[C@H]1C(=O)N1CCC[C@H]1C(=O)N[C@@H]([C@@H](C)CC)C(=O)N2 | Active | –
9 | CC(C)C[C@H](NC(=O)CN)C(=O)N1CCC[C@H]1C(=O)N[C@H](C(=O)N[C@@H]1CSSC[C@H]2NC(=O)CNC(=O)[C@@H]3CCCN3C(=O)[C@H]([C@@H](C)O)NC(=O)[C@@H](CC(N)=O)NC(=O)[C@H]3CSSC[C@H](C(=O)N[C@@H](C(=O)N[C@H](CCCNC(=N)N)C(=O)N[C@@H](CC(N)=O)C(=O)O)[C@@H](C)O)NC(=O)[C@H](C(C)C)NC(=O)[C@H]4CCCN4C(=O)[C@@H](Cc4c[nH]c5ccccc45)NC(=O)[C@H](CO)NC(=O)[C@@H](CSSC[C@@H](NC(=O)[C@@H]([C@@H](C)O)NC(=O)[C@@H](CCC(=O)O)NC(=O)CNC1=O)C(=O)N[C@@H](C(C)C)C(=O)NCC(=O)NCC(=O)N[C@@H]([C@@H](C)O)C(=O)N3)NC(=O)[C@@H]([C@H](C)O)NC2=O)C(C)C | Active | –
10 | CC[C@H](C)[C@@H]1NC(=O)[C@H](CCC(N)=O)NC(=O)[C@H](C(C)C)NC(=O)CNC(=O)[C@H]2CCCN2C(=O)[C@H](C(C)C)NC(=O)[C@H](C)N(C)C(=O)[C@H]([C@@H](C)CC)NC(=O)[C@@H]2CSSC[C@H](NC1=O)C(=O)N[C@@H](Cc1ccc(O)cc1)C(=O)N[C@@H](CCCCN)C(=O)N[C@@H](CO)C(=O)N[C@@H]([C@@H](C)CC)C(=O)N1CCC[C@H]1C(=O)N1CCC[C@H]1C(=O)N[C@@H]([C@@H](C)CC)C(=O)N2 | – | inhibition [2]: Dose-dependent effect
11 | CC[C@H](C)[C@@H]1NC(=O)[C@@H]2CSSC[C@H](NC(=O)[C@H]([C@@H](C)CC)NC(=O)[C@H](CCC(N)=O)NC(=O)[C@H](C(C)C)NC(=O)CNC(=O)[C@H]3CCCN3C(=O)[C@H](C(C)C)NC(=O)[C@H](C)NC1=O)C(=O)N[C@@H](Cc1ccc(O)cc1)C(=O)N[C@@H](CCCCN)C(=O)N[C@@H](CO)C(=O)N[C@@H]([C@@H](C)CC)C(=O)N1CCC[C@H]1C(=O)N1CCC[C@H]1C(=O)N[C@@H]([C@@H](C)CC)C(=O)N2 | Active | –
12 | CC[C@H](C)[C@@H]1NC(=O)[C@@H]2CCCN2C(=O)[C@@H]2CCCN2C(=O)[C@H]([C@@H](C)CC)NC(=O)[C@H](CO)NC(=O)[C@H](C)NC(=O)[C@H]([C@@H](C)O)NC(=O)[C@@H]2CSSC[C@H](NC1=O)C(=O)N[C@@H](Cc1ccccc1)C(=O)N1CCC[C@H]1C(=O)N[C@@H](CC(=O)O)C(=O)NCC(=O)N[C@@H](CCCNC(=N)N)C(=O)N2 (cyclo(ASIPPICFPDGRCT); disulfide 7-13) | Active | –
13 | CC[C@H](C)[C@@H]1NC(=O)[C@H](CCC(N)=O)NC(=O)[C@H](C(C)C)NC(=O)CNC(=O)[C@H](CC(=O)O)NC(=O)[C@@H]2CCCN2C(=O)[C@H](C(C)C)NC(=O)[C@H](CCCCN)NC(=O)[C@H]([C@@H](C)CC)NC(=O)[C@@H]2CSSC[C@H](NC1=O)C(=O)N[C@@H](Cc1ccc(O)cc1)C(=O)N[C@@H](CCCCN)C(=O)N[C@@H](CO)C(=O)N[C@@H]([C@@H](C)CC)C(=O)N1CCC[C@H]1C(=O)N1CCC[C@H]1C(=O)N[C@@H]([C@@H](C)CC)C(=O)N2 (cyclo(CIKVPDGVQICYKSIPPI); disulfide 1-11) | Active | –
14 | CC[C@H](C)[C@@H]1NC(=O)[C@H](C)NC(=O)CNC(=O)[C@@H]2CCCN2C(=O)[C@@H]2CCCN2C(=O)[C@H]([C@@H](C)CC)NC(=O)[C@H](CO)NC(=O)[C@H](CCCCN)NC(=O)[C@H](Cc2ccc(O)cc2)NC(=O)[C@H](C)NC(=O)[C@H]([C@@H](C)CC)NC(=O)[C@H](CCC(N)=O)NC(=O)[C@H](C(C)C)NC(=O)CNC(=O)[C@H](CC(=O)O)NC(=O)[C@@H]2CCCN2C(=O)[C@H](C(C)C)NC(=O)[C@H](CCCCN)NC1=O (cyclo(AIKVPDGVQIAYKSIPPG)) | Active | Stability [3]: Stable
15 | CC(C)[C@H](NC(=O)CN)C(=O)N[C@H]1CSSC[C@@H](C(=O)N[C@@H](CCCNC(=N)N)C(=O)N[C@@H](CCCNC(=N)N)C(=O)O)NC(=O)[C@@H](C(C)C)NC(=O)C2CSSCC(NC(=O)[C@H](CCCNC(=N)N)NC1=O)C(=O)N[C@@H](C(C)C)C(=O)N[C@H]1CSSC[C@H](NC(=O)[C@H](C(C)C)NC(=O)CNC(=O)[C@H](CCCNC(=N)N)NC(=O)[C@H](CCCNC(=N)N)NC1=O)C(=O)N[C@@H](CCCNC(=N)N)C(=O)N2 | – | Activity [4]: Active; Activity [5]: Active
16 | CC[C@H](C)[C@@H]1NC(=O)[C@H](CCC(N)=O)NC(=O)[C@H](C(C)C)NC(=O)CNC(=O)[C@H](CC(=O)O)NC(=O)[C@@H]2CCCN2C(=O)[C@H](C(C)C)NC(=O)[C@H](CCCCN)NC(=O)[C@H]([C@@H](C)CC)NC(=O)[C@@H]2CSSC[C@H](NC1=O)C(=O)N[C@@H](Cc1ccc(O)cc1)C(=O)N[C@@H](CCCCN)C(=O)N[C@@H](CO)C(=O)N[C@@H]([C@@H](C)CC)C(=O)N1CCC[C@H]1C(=O)N1CCC[C@H]1C(=O)NCC(=O)N2 (cyclo(CIKVPDGVQICYKSIPPG); disulfide 1-11) | Active | Stability [3]: Stable
17 | CC[C@@H](C)[C@@H]1NC(=O)[C@@H]2CSSC[C@H](NC(=O)[C@@H]([C@H](C)CC)NC(=O)CNC(=O)[C@H]3CCCN3C1=O)C(=O)N[C@H](Cc1ccc(O)cc1)C(=O)N[C@H](CCCCN)C(=O)N[C@H](CO)C(=O)N[C@H]([C@H](C)CC)C(=O)N1CCC[C@H]1C(=O)N1CCC[C@H]1C(=O)NCC(=O)N2 | Active | –
18 | CC[C@H](C)[C@@H]1NC(=O)[C@@H]2CSSC[C@H](NC(=O)[C@H]([C@@H](C)CC)NC(=O)[C@H](CCC(N)=O)NC(=O)[C@@H]3CCCN3C(=O)[C@@H]3CCCN3C(=O)[C@H](C)NC1=O)C(=O)N[C@@H](Cc1ccc(O)cc1)C(=O)N[C@@H](CCCCN)C(=O)N[C@@H](CO)C(=O)N[C@@H]([C@@H](C)CC)C(=O)N1CCC[C@H]1C(=O)N1CCC[C@H]1C(=O)NCC(=O)N2 (cyclo(APPQICYKSIPPGCI); disulfide 6-14) | Active | –
